Test [1] deals with CQC sensitive strain (NF54) of P. falciparum. Nature of the test: In vitro antiplasmodial activity, Assay B (as described by Vennerstrom et al. 2004). It counts as cell-based. The conditions noted are these: Plasmodium falciparum; NF54, Vennerstrom et al. method. How it is done: Compounds were screened against CQC sensitive strain (NF54) of P. falciparum in vitro as described by Vennerstrom et al. (2004). A full dose-response were performed starting at a concentration of 3000 nM, which is then serially diluted 2-fold in complete medium to give 10 concentrations; with the lowest concentration being approximately 6 nM. The same dilution techniques were used for all samples. References were tested at a starting concentration of 1000 ng/mL. The highest concentration of solvent to which the parasites were exposed has no measurable effect on the parasite viability (data not shown).

Test [2] deals with chloroquine sensitive (CQS) strain (NF54) of P. falciparum. The experiment in a line: In vitro antiplasmodial activity, Assay A (parasite lactate dehydrogenase assay). It counts as cell-based. How it is done:
Test samples were screened for in vitro antiplasmodial activity against a chloroquine sensitive (CQS) strain (NF54) of the malaria parasite P. falciparum. Continuous in vitro cultures of asexual erythrocyte stages of P. falciparum were maintained using a modified version of the method of Trager and Jensen (1976).1 Quantitative assessment of antiplasmodial activity in vitro was determined via the parasite lactate dehydrogenase assay using a modified method described by Makler (1993). The test samples were tested in triplicate on two separate occasions. Further dilutions were prepared in complete medium on the day of the experiment. Samples were tested as a suspension if not completely dissolved. Chloroquine and artesunate were used as the reference drugs. A full dose-response were performed starting at a concentration of 3000 nM, which is then serially diluted 2-fold in complete medium to give 10 concentrations; with the lowest concentration being approximately 6 nM. The same dilution techniques were used for all samples. References were tested at a starting concentration of 1000 ng/mL. The highest concentration of solvent to which the parasites were exposed has no measurable effect on the parasite viability (data not shown).

pIC50: −log10 of the molar value. Read-outs that look alike come from different tables or passages of the source.

Turning to `CC(C)(O)Cc1cc(-c2ncnc3cc(-c4ccc(S(C)(=O)=O)cc4)oc23)ccn1` [Compound P6, 2-methyl-1-(4-(6-(4-(methylsulfonyl)phenyl)furo [3,2-d]pyrimidin-4-yl)pyridin-2-yl)propan-2-ol], the pIC50 in test [1] is below 7.30. In test [1], `CC(C)(O)c1cc(-c2ncnc3cc(-c4ccc(C(=O)O)cc4)oc23)ccn1` [Compound P10, 4-(4-(2-(2-hydroxypropan-2-yl)pyridin-4-yl)furo[3,2-d]pyrimidin-6-yl)benzoic acid] gave a negative logarithm of the IC50 (pIC50) of 7.30 to 7.82. `CC(C)(O)c1cccc(-c2ncnc3cc(-c4ccc(S(C)(=N)=O)cc4)oc23)c1F` (centres unmarked) [Compound P28, (4-(4-(2-fluoro-3-(2-hydroxypropan-2-yl)phenyl)furo[3,2-d]pyrimidin-6-yl)phenyl)(imino)(methyl)-λ6-sulfanone] showed a pIC50 in test [2] above 7.82.

On to `Cn1cc(-c2cc3ncnc(-c4cccc(S(=O)(=O)C5CC5)c4)c3o2)ccc1=O` [Compound D22, 5-(4-(3-(cyclopropylsulfonyl)phenyl)furo[3,2-d]pyrimidin-6-yl)-1-methylpyridin-2(1H)-one], for which, in test [2] (Plasmodium falciparum), the negative logarithm of the IC50 (pIC50) is below 7.30.

`CC(C)(O)c1cc(F)cc(-c2ncnc3cc(-c4ccc(C(=O)N5C[C@@H]6C[C@H]5CO6)cc4)oc23)c1` [Compound D175, ((1S,4S)-2-oxa-5-azabicyclo[2.2.1]heptan-5-yl)(4-(4-(3-fluoro-5-(2-hydroxypropan-2-yl)phenyl)furo[3,2-d]pyrimidin-6-yl)phenyl)methanone]: in test [2] (Plasmodium falciparum), the negative-log IC50 (pIC50) was above 7.82. `CC(C)(O)c1cc(-c2ncnc3cc(-c4ccc(S(C)(=N)=O)cc4)oc23)ccn1` (centres unmarked) [Compound P25, (4-(4-(2-(2-hydroxypropan-2-yl)pyridin-4-yl)furo[3,2-d]pyrimidin-6-yl)phenyl)(imino)(methyl)-λ6-sulfanone] gave a negative-log IC50 (pIC50) in test [1] of 7.30 to 7.82.

Consider `CC(C)(O)c1cc(-c2ncnc3cc(-c4ccc(C(=O)N5CCOCC5)cc4)oc23)cc(F)n1` [Compound P14, (4-(4-(2-fluoro-6-(2-hydroxypropan-2-yl)pyridin-4-yl)furo[3,2-d]pyrimidin-6-yl)phenyl)(morpholino) methanone], for which the negative-log IC50 (pIC50) in test [1] is 7.30 to 7.82. Still for that read-out and setting: with `CC(C)(O)c1cc(-c2ncnc3cc(-c4ccc([S@@](C)(=N)=O)cc4)oc23)ccn1` [Compound P26, (S)-(4-(4-(2-(2-hydroxypropan-2-yl)pyridin-4-yl)furo[3,2-d]pyrimidin-6-yl)phenyl)(imino)(methyl)-λ6-sulfanone] the figure was 7.30 to 7.82; with `CC(C)(O)c1cc(-c2ncnc3cc(-c4ccc([S@](C)(=N)=O)cc4)oc23)ccn1` [Compound P27, (R)-(4-(4-(2-(2-hydroxypropan-2-yl)pyridin-4-yl)furo[3,2-d]pyrimidin-6-yl)phenyl)(imino)(methyl)-λ6-sulfanone], 7.30 to 7.82. Turning to `C[C@@H]1CN(C(=O)c2ccc(-c3cc4ncnc(-c5ccnc(C(C)(C)O)c5)c4o3)cc2)C[C@@H](C)O1` [Compound P15, ((2R,6R)-2,6-dimethylmorpholino)(4-(4-(2-(2-hydroxypropan-2-yl)pyridin-4-yl)furo[3,2-d]pyrimidin-6-yl)phenyl)methanone], the pIC50 in test [1] was above 7.82.

Compound `C[C@H]1CN(C(=O)c2ccc(-c3cc4ncnc(-c5ccnc(C(C)(C)O)c5)c4o3)cc2)C[C@H](C)O1` [Compound P16, ((2S,6S)-2,6-dimethylmorpholino)(4-(4-(2-(2-hydroxypropan-2-yl)pyridin-4-yl)furo[3,2-d]pyrimidin-6-yl)phenyl)methanone] had a negative-log IC50 (pIC50) in test [1] above 7.82.

Turning to `CN(C)C(=O)c1ccc(-c2cc3ncnc(-c4ccnc(C(C)(C)O)c4)c3o2)cc1` [Compound P8, 4-(4-(2-(2-hydroxypropan-2-yl)pyridin-4-yl)furo[3,2-d]pyrimidin-6-yl)-N,N-dimethylbenzamide], the pIC50 in test [1] is 7.30 to 7.82. Same read-out and setting: then `CS(=O)(=O)c1ccc(-c2cc3ncnc(-c4cccc(C(=O)N5C[C@@H]6C[C@H]5CO6)c4F)c3o2)cc1` [Compound P5, ((1S,4S)-2-oxa-5-azabicyclo[2.2.1]heptan-5-yl)(2-fluoro-3-(6-(4-(methylsulfonyl)phenyl)furo [3,2-d]pyrimidin-4-yl)phenyl)methanone], with 7.30 to 7.82.

The compound `CC(C)(O)c1cc(-c2ncnc3cc(-c4ccc(C(=O)N5CC(F)(F)C5)cc4)oc23)ccn1` [Compound P12, (3,3-difluoroazetidin-1-yl)(4-(4-(2-(2-hydroxypropan-2-yl)pyridin-4-yl)furo[3,2-d]pyrimidin-6-yl)phenyl)methanone] showed a pIC50 in test [1] of 7.30 to 7.82. Take `CC(C)(O)c1cc(-c2ncnc3cc(-c4ccc(C(=O)N5CCOCC5)cc4)oc23)ccn1` [Compound P11, (4-(4-(2-(2-hydroxypropan-2-yl)pyridin-4-yl)furo[3,2-d]pyrimidin-6-yl)phenyl)(morpholino) methanone]: the negative-log IC50 (pIC50) in test [1] was above 7.82.

As for `CS(=O)(=O)c1ccc(-c2cc3ncnc(-c4cccc(C(=O)N5C[C@H]6C[C@@H]5CO6)c4F)c3o2)cc1` [Compound P4, ((1R,4R)-2-oxa-5-azabicyclo[2.2.1]heptan-5-yl)(2-fluoro-3-(6-(4-(methylsulfonyl)phenyl)furo [3,2-d]pyrimidin-4-yl)phenyl)methanone], the pIC50 in test [1] is 7.30 to 7.82. As to `CS(=O)(=O)c1ccc(-c2cc3ncnc(-c4cccc(C(=O)N5C[C@H]6C[C@@H]5CO6)c4)c3o2)cc1` [Compound P3, ((1R,4R)-2-oxa-5-azabicyclo[2.2.1]heptan-5-yl)(3-(6-(4-(methylsulfonyl)phenyl)furo [3,2-d]pyrimidin-4-yl)phenyl)methanone], the pIC50 in test [1] was below 7.30. In the case of `CC(=O)c1ccc(-c2cc3ncnc(-c4cccc(S(=O)(=O)C5CC5)c4)c3o2)cn1` [Compound P2, 1-(5-(4-(3-(cyclopropylsulfonyl)phenyl)furo[3,2-d]pyrimidin-6-yl)pyridin-2-yl)ethan-1-one], the negative-log IC50 (pIC50) in test [1] was below 7.30. Same read-out and setting: then `CC(C)(O)c1cccc(-c2ncnc3cc(-c4ccc([S@@](C)(=N)=O)cc4)oc23)c1F` [Compound P29, (S)-(4-(4-(2-fluoro-3-(2-hydroxypropan-2-yl)phenyl)furo[3,2-d]pyrimidin-6-yl)phenyl)(imino)(methyl)-λ6-sulfanone], with above 7.82; and `CC(C)(O)c1cccc(-c2ncnc3cc(-c4ccc([S@](C)(=N)=O)cc4)oc23)c1F` [Compound P30, (R)-(4-(4-(2-fluoro-3-(2-hydroxypropan-2-yl)phenyl)furo[3,2-d]pyrimidin-6-yl)phenyl)(imino)(methyl)-λ6-sulfanone], with above 7.82; and `CN1CCN(C(=O)c2ccc(-c3cc4ncnc(-c5ccnc(C(C)(C)O)c5)c4o3)cc2)CC1` [Compound P22, (4-(4-(2-(2-hydroxypropan-2-yl)pyridin-4-yl)furo[3,2-d]pyrimidin-6-yl)phenyl)(4-methylpiperazin-1-yl)methanone], with above 7.82. Compound `CC(C)(O)c1cc(-c2ncnc3cc(-c4ccc(S(C)(=O)=O)cc4)oc23)ccn1` [Compound P7, 2-(4-(6-(4-(methylsulfonyl)phenyl)furo [3,2-d]pyrimidin-4-yl)pyridin-2-yl)propan-2-ol] showed a pIC50 in test [1] of 7.30 to 7.82. As to `CN(C)C(=O)c1ccc(-c2cc3ncnc(-c4cccc(C(C)(C)O)c4)c3o2)cc1` [Compound P9, 4-(4-(3-(2-hydroxypropan-2-yl)phenyl)furo[3,2-d]pyrimidin-6-yl)-N,N-dimethylbenzamide], the pIC50 in test [1] was 7.30 to 7.82.

For orientation: pIC50 means the negative decadic logarithm of the IC50, by convention in mol/L.

(Values after patent publication US20260042772A1, “FURO PYRIMIDINE DERIVATES” (Merck Patent GmbH, priority 2022, published 2026).)
